The record followed here is patent US9150528B2, “Compound having detrusor muscle-contracting activity and urethral sphincter muscle-relaxing activity” (ONO PHARMACEUTICAL CO., LTD., priority 2009, dated 2015).

The subject of one series is normal rats. In words: Blood pressures and heart rates in normal rats. In kind it is in vivo, rat. Particulars: oral; for effect on the blood pressure / increase in heart rate: 0.3 mg/kg. On the procedure:
The blood pressures and heart rates of female Wistar rats were measured in accordance with the following procedure. On the day of measurement, indwelling of catheters for blood pressure•heart rate measurement was carried out under anesthesia with ether. The back of the neck of each rat was incised; a feeding catheter (Atom Medical Corporation) filled with heparinized physiological saline was introduced from the back of the neck; the catheter was inserted into the common carotid artery; and the surgical incision was closed. The measurements were carried out in a Bollmann cage under the conscious state, and the evaluations were carried out after confirming that the individual parameters were stabilized. After confirming the stabilization of blood pressure and heart rate, the test compound which was prepared using injectable water containing equimolar NaOH was orally administered at a dose of 5 mL/kg.
The catheter drawn from the back of the neck was connected to a pressure transducer (DX-200, NIHON KOHDEN CORP.), and the blood pressures and heart rates were measured using an amplifier for pressure measurement (Gould Instrument). The blood pressures and heart rates were recorded using a recorder (LINEARCORDERWR3320, GRAPHTEC). For each individual, rates of increase and decrease in average blood pressure and heart rate before administration and 30, 60, 120, and 180 min after administration were calculated with respect to the values of each individual before administration. Changes in blood pressure and heart rate before and after administration of the test compound were evaluated.

The test system of series [1] is underactive bladder models. In words: Residual urinary volumes and bladder capacities in underactive bladder models (cystometry). In kind it is in vivo, rat. Particulars: 0.01 mg/kg, oral, underactive bladder model rats, versus normal group. As to the method: The underactive bladder models were constructed in accordance with the following procedure. Female Wistar rats (8 to 9 weeks age) were anesthetized by intraperitoneal administration of Somnopentyl (40 mg/kg), followed by dorsal shaving, and fixed in abdominal positions. Each of the dorsal areas was disinfected with chlorhexidine gluconate (5% hibitane liquid). The waist area was median-incised to expose the spinal column. After excision of the fifth lumbar spinous process, a silicone rubber was inserted into the sixth lumbar direction from a hole bored by a mini drill. For the purpose of avoiding infections, after completion of the surgical operation, benzylpenicillin potassium (25000 U/0.25 mL/body) was added dropwise to the incised area. The muscle and skin of the incised area were sutured with silk threads, and iodine tincture was applied to the sutured area. After the operation, maintenance of voiding was carried out by manual compressions three times daily. For the purpose of avoiding infections, potassium penicillin G (1.25 units/body) was administered subcutaneously. More than 5 days prior to cystometric evaluation, a catheter for cystometrogram was indwelled in the bladder. Anesthesia with sodium pentobarbital (40 mg/kg by intraperitoneal administration) and incision along the midline of the abdomen were carried out, followed by incision of the apex of the bladder. A catheter for cystometrogram filled with physiological saline was inserted into the bladder from a hole of the apical area, and fixed by ligation using silk suture threads. […]
The rats were anesthetized with ether and housed in a Bollmann cage 2 weeks after the construction of the models. To the front end of each of the bladder catheters, a pressure transducer via a three-way cock was connected, and the intravesical pressure was recorded using a strain pressure amplifier•recorder. […]
[…] After 1 hr, physiological saline was perfused into the bladder at a flow rate of 2 mL/h and voiding parameters (bladder capacity and residual urinary volume) were measured. […] Voiding parameters were calculated for each cystometry. […]

Series [2] has as its system human lyophilized liver cells. Put plainly: Stability evaluation in lyophilized liver cells. Particulars: 37° C. In kind it is in vitro ADME. On the procedure:
KHEM5100 medium which includes human lyophilized liver cells after dissolving (final concentration of living cells: 1×10^6 cells/mL) and the test compound (acetonitrile or methanol solution, final concentration≦1%) was incubated at 37° C. Immediately after reaction and with the passage of reaction time, some portions were sampled from the medium. The concentrations of the test compound in the samples were measured by LC/MS/MS. The residual rate of the test compound relative to immediately after reaction was calculated by the following equation: Residual rate=the concentration of the test compound in the sample after reaction/the concentration of the test compound in the sample immediately after reaction×100(%) The residual rates were plotted on a single logarithmic scale against reaction time to calculate loss rate constants. The test was repeated (n=2), and the obtained values were averaged.

Another series concerns cynomolgus monkeys. In words: Effects on cardiac function in anesthetized cynomolgus monkeys. Particulars: continuous intravenous 30 min. In kind it is in vivo, cynomolgus monkey. On the procedure:
Cynomolgus monkeys were anesthetized with pentobarbital (at an initial dose of 20-30 mg/kg by intravenous administration; at a dose of 4-5 mg/kg/hr by intravenous continuous administration). A tracheal tube was inserted and experiments were carried out under artificial respiration (fresh air+pure oxygen, ventilatory volume: 10-15 mL/kg, ventilation frequency: 10-15 times/min). In the right lying position, the left thorax was opened between the fourth and fifth intercostal spaces. The […] (the origin of the left anterior descending artery or circumflex branch) and the origin of the ascending main artery were peeled off and transducers for blood flow measurement were located there. The blood flow rates were measured using an electronic blood flowmeter or an ultrasonic blood flowmeter. The blood pressures were measured using a pressure transducer in a state where a catheter was inserted into the right femoral artery. The left ventricular internal pressure was measured in a state where a catheter was inserted from the left carotid artery into the left ventricle. The electrocardiogram was measured using needle electrodes installed in the right armpit and the left thorax. After catheters for administration were inserted into the right and left cephalic veins and femoral veins, the test compound, pentobarbital (under anesthesia) or an aqueous solution (SOLITA T3 containing 1.2% NaHCO3) were administered therethrough. The test compound was continuously administered intravenously 30 min using a continuous infusion system. The blood pressure, left ventricular internal pressure, blood flow rate through the coronary artery and electrocardiogram data were simultaneously inputted to a PowerLab system (LabChart6, AD instruments) to measure/calculate average blood pressure, heart rate, average blood flow rate through the coronary artery, beat volume, stroke volume (beat volume/heart rate), maximum first deviation of the left ventricular internal pressure, total peripheral blood vessel resistance (average blood pressure/beat volume), cardiac performance (average blood pressure x beat volume) and double product (systolic arterial pressure x heart rate), which is indicative of myocardial oxygen consumption.
The averages of all evaluation parameters for 1 min were obtained before administration, immediately after administration, and 10 min, 20 min and 30 min after administration, and changes of the averages relative to the value measured before administration which is defined as 100% were calculated.

For series [3], the system named is urinary excretion dysfunction models. Put plainly: Urinary excretion dysfunction models, maximal urinary flow rate. In kind it is in vivo. Particulars: 60 ng/kg/h continuous intravenous, cynomolgus monkey urinary excretion dysfunction model. The text has this:
Urinary excretion dysfunction models were constructed in accordance with the following procedure. After anesthesia of cynomolgus monkeys, the region from the suprapubic area to the abdominal area was shaved, followed by fixing in a dorsal position. The shaved region was disinfected and the four legs were fixed. Using an electrosurgical knife, the skin region from the suprapubic area to the umbilical area and the peritoneal membrane were sequentially incised, followed by damage to the pelvic nerve and removal of the uterus. After the surgical operation, viccillin-containing physiological saline was added dropwise to the incised area. The peritoneal membrane and skin of the incised area were sutured with silk threads and disinfected. Viccillin was administered for 7 consecutive days after surgery. Meloxicam was administered once daily for 7 consecutive days to manage pain in the perioperative period.
The cynomolgus monkeys were seated on monkey chairs, followed by retention of the hands and legs with strings. Injectable water was administered orally, and physiological saline and the test compound (60 ng/kg/h) were continuously administered intravenously to allow urination freely. The maximal urinary flow rate was measured using a urine weighing sensor.

The subject of series [4] is spontaneously hypertensive rats. In words: Blood pressure and heart rate measurement in hypertensive rats. Particulars: continuous intravenous. It is filed as in vivo, rat. As to the method:
The blood pressures and heart rates of male spontaneously hypertensive rats were measured. On the day of measurement, indwelling of catheters for blood pressure•heart rate measurement and subject substance administration was carried out under anesthesia with ether. The back of the neck of each rat was incised, a feeding catheter (Atom Medical Corporation) filled with heparinized physiological saline was introduced from the back of the neck; the catheter was inserted into the common carotid artery and internal jugular vein; and the surgical incision was closed. The measurements were conducted in a Bollmann cage under the conscious state and evaluations were carried out after confirming that the individual parameters were stabilized. After confirming the stabilization of blood pressure and heart rate, the test compound was continuously administered intravenously at a flow rate of 5 mL/kg/h for 30 min.
The catheter drawn from the back of the neck was connected to a pressure transducer (DX-200, NIHON KOHDEN CORP.), and the blood pressures and heart rates were measured using a blood pressure amplifier (Gould instrument). The blood pressures and heart rates were recorded on recording paper using a recorder (LINEARCORDER WR3320, GRAPHTEC). The blood pressures and heart rates were converted into values on the recording paper before administration and 2.5, 5, 10, 15, 30, 45 and 60 min after administration. For each individual, rates of increase and decrease in the parameters were evaluated relative to the value before administration (value at 0 min).

For another series, the system named is male rats. In words: Digestive symptoms after repeated oral administration. Particulars: 0.1 mg/kg oral, repeated for 4 days. In kind it is in vivo, rat. On the procedure:
Using male rats, aged 6 weeks, general states of the rats were observed after repeating oral administration of the test compound at a dose of 0.1 mg/kg for 4 days. To a control, injectable water which is a medium was administered.

Series [5] can be described thus: Parallel artificial membrane permeability assay (PAMPA). In kind it is in vitro ADME. Particulars: sum of pH 5.0, 6.2 and 7.4, 25° C., read-out: membrane permeability coefficients (PAMPA(SUM)). On the procedure:
The permeability of the drugs through artificial membranes was measured by parallel artificial membrane permeability assay (PAMPA) under the following conditions. For the measurements, a PAMPA system (pION) was used. The membrane permeability was evaluated by measuring membrane permeability coefficients at three pH values and summing the values (PAMPA(SUM)(cm/sec)).
Lipid membrane: GIT-0 (pION)
Incubation temperature: 25° C.
Donor: 5% DMSO-containing buffer
Compound concentration: 50 μmol/L
On the technique in general: In PAMPA a lipid-coated filter parts donor from acceptor wells.

For the molecule `C=C(C)CC[C@](C)(O)C/C=C/[C@H]1CCC(=O)[C@@H]1CCSc1nc(C(=O)O)cs1` [Comparative compound A, 2-[(2-{(1R,2R)-2-[(1E,4S)-4-hydroxy-4,7-dimethyl-1,7-octadien-1-yl]-5-oxocyclopentyl}ethyl)thio]-1,3-thiazole-4-carboxylic acid], in the series on normal rats, the “effect on the blood pressure” value was “tendency to increase”. For the same molecule, the “increase in blood pressure” value in the series on normal rats (1 mg/kg) is on record as “about 10%”. In series [1], the bladder capacity result is “significant decrease”.

With `CCCCC[C@](C)(O)C/C=C/[C@H]1CCC(=O)[C@@H]1CCSc1nc(C(=O)O)cs1` [Comparative compound B, 2-[(2-{(1R,2R)-2-[(1E,4S)-4-hydroxy-4-methyl-1-nonen-1-yl]-5-oxocyclopentyl}ethyl)thio]-1,3-thiazole-4-carboxylic acid, reference compound], the “effect on the blood pressure” value in the series on normal rats is recorded as “tendency to decrease”. In addition, the “increase in heart rate” value in the series on normal rats is listed as “about 20%”. The Residual rate in series [2] (Reaction time 0 h) is given as 100%; in series [2] (Reaction time 0.5 h) it was 91.5%; in series [2] (Reaction time 1 h) it was 78.1%; in series [2] (Reaction time 1 h, listed as comparative compound B), ≤ 80%; in series [2] (Reaction time 2 h), 62.3%; in series [2] (Reaction time 2 h, listed as comparative compound B), “about 60%”. In addition, in the series with cynomolgus monkeys, the “effect on the cardiac functions” value is “inhibitory effect”. For the same molecule, the “improvement in maximal urinary flow rate over the vehicle group” value in series [3] turned out to be 27%. Further, the figures for the “reduction of blood pressure” value in series [4] (100 ng/kg/min) and in series [4] (300 ng/kg/min) were “about 10%” and “about 25%”, respectively.

`C[C@@](O)(C/C=C/[C@H]1CCC(=O)[C@@H]1CCSc1nc(C(=O)O)cs1)CCCC(F)(F)F` [Comparative compound C, 2-[(2-{(1R,5R)-2-oxo-5-[(1E,4S)-8,8,8-trifluoro-4-hydroxy-4-methyl-1-octenyl]cyclopentyl}ethyl)thio]-1,3-thiazole-4-carboxylic acid]: in the series with normal rats, the “effect on the blood pressure” value is “tendency to decrease” and the “increase in heart rate” value is reported as “about 20%”. In the series on male rats, the “digestive symptoms such as soft feces” value is “soft feces were observed”.

As to `C[C@@](O)(C/C=C/[C@H]1COC(=O)N1CCSc1nc(C(=O)O)cs1)CCCC(F)(F)F` [Comparative compound E, 2-[(2-{(4S)-2-oxo-4-[(1E,4S)-8,8,8-trifluoro-4-hydroxy-4-methyl-1-octenyl]-1,3-oxazolidin-3-yl}ethyl)sulfanyl]-1,3-thiazole-4-carboxylic acid, reference compound], the Papp at 4 hr, 50 μmol/L in series [5] was 0.6 ×10⁻⁶ cm/s.
